According to BindingDB's records for patent US20250019381 (Cardurion Pharmaceuticals, 2025):

Target: Dual specificity calcium/calmodulin-dependent 3',5'-cyclic nucleotide phosphodiesterase 1A (Human, UniProt P54750)
Experiment: Enzyme immunoassay

Chain of Dual specificity calcium/calmodulin-dependent 3',5'-cyclic nucleotide phosphodiesterase 1A (P54750 whole entry): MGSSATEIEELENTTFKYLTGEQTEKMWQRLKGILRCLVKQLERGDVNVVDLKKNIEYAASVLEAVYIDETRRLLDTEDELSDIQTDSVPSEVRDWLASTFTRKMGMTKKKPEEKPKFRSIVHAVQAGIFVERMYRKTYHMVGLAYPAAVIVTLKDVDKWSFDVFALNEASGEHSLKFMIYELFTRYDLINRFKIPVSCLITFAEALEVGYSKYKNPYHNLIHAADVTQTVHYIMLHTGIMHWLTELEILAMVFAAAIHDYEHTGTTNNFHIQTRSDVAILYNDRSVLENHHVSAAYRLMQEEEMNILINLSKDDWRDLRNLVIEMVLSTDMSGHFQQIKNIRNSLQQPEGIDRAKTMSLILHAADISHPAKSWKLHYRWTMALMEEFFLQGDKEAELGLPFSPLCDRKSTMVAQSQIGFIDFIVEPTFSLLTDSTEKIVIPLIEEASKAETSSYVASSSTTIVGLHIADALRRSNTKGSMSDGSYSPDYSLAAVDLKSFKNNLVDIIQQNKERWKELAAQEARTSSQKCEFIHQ

IC50: 5.28 µM
Structure (SMILES): O=c1[nH]c(CN2CC(Oc3cccnc3)C2)cn2c(C3CCOCC3)ncc12 [US20250019381, Compound (P2)]
